How the values were obtained:
Assay in all cases: relative viability (nuclei count vs DMSO), 5 days (fraction); higher = more cells survive
LC-2-ad = test system: LC-2-ad
How it was run: (§1)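 Medians of duplicate plates are given as relative viability. That measure is the nuclei count in treated wells divided by the count in vehicle wells. Counts were taken on 4× images of lung cancer cell lines in 1536-well plates, 5 days after pin-tool dosing the day after seeding with one drug alone or a fixed anchor-drug dose plus five library-drug doses (not always all listed) in √10 steps.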

NCI-H2228 = test system: NCI-H2228
How it was run: as §1

LCLC-103H = test system: LCLC-103H
How it was run: as §1

COR-L23 = test system: COR-L23
How it was run: as §1

SW 1573 = test system: SW 1573
How it was run: as §1

LU99A = test system: LU99A
How it was run: as §1

H3255 = test system: H3255
How it was run: as §1

SW 900 = test system: SW 900
How it was run: as §1

NCI-H1563 = test system: NCI-H1563
How it was run: as §1

PC-14 = test system: PC-14
How it was run: as §1

NCI-H1650 = test system: NCI-H1650
How it was run: as §1

NCI-H727 = test system: NCI-H727
How it was run: as §1

NCI-H2347 = test system: NCI-H2347
How it was run: as §1

A-427 = test system: A-427
How it was run: as §1

201T = test system: 201T
How it was run: as §1

NCI-H596 = test system: NCI-H596
How it was run: as §1

HCC-44 = test system: HCC-44
How it was run: as §1

NCI-H1793 = test system: NCI-H1793
How it was run: as §1

LCLC-97TM1 = test system: LCLC-97TM1
How it was run: as §1

NCI-H23 = test system: NCI-H23
How it was run: as §1

LK-2 = test system: LK-2
How it was run: as §1

NCI-H460 = test system: NCI-H460
How it was run: as §1

With Nc1ccn([C@@H]2O[C@H](CO)[C@@H](O)[C@@H]2O)c(=O)n1 [Cytarabine] + CCNC(=O)c1noc(-c2cc(C(C)C)c(O)cc2O)c1-c1ccc(CN2CCOCC2)cc1 [Luminespib] (partner 0.01 µM) the relative viability (LC-2-ad; first compound 0.005 µM) was 0.892, the relative viability (LC-2-ad; first compound 0.01581 µM) was 0.994 and the relative viability (LC-2-ad; first compound 0.05 µM) was 0.768. For the same compound, the relative viability (LC-2-ad; first compound 0.1581 µM) was 0.636, the relative viability (LC-2-ad; first compound 0.5 µM) was 0.478 and the relative viability (NCI-H2228; first compound 0.005 µM) was 0.141. It also gave a relative viability (NCI-H2228; first compound 0.01581 µM) of 0.121, a relative viability (NCI-H2228; first compound 0.05 µM) of 0.141 and a relative viability (NCI-H2228; first compound 0.1581 µM) of 0.116. It also gave a relative viability (NCI-H2228; first compound 0.5 µM) of 0.12, a relative viability (LCLC-103H; first compound 0.005 µM) of 0.96 and a relative viability (LCLC-103H; first compound 0.01581 µM) of 1.05. The relative viability (LCLC-103H; first compound 0.05 µM) was 1.03, the relative viability (LCLC-103H; first compound 0.1581 µM) was 0.909 and the relative viability (LCLC-103H; first compound 0.5 µM) was 0.947. It also gave a relative viability (COR-L23; first compound 0.005 µM) of 0.481, a relative viability (COR-L23; first compound 0.01581 µM) of 0.789 and a relative viability (COR-L23; first compound 0.05 µM) of 0.628. For the same compound, the relative viability (COR-L23; first compound 0.1581 µM) was 0.257, the relative viability (COR-L23; first compound 0.5 µM) was 0.163 and the relative viability (SW 1573; first compound 0.005 µM) was 0.375. The relative viability (SW 1573; first compound 0.01581 µM) was 0.228, the relative viability (SW 1573; first compound 0.05 µM) was 0.285 and the relative viability (SW 1573; first compound 0.1581 µM) was 0.164. It also gave a relative viability (SW 1573; first compound 0.5 µM) of 0.0905, a relative viability (LU99A; first compound 0.005 µM) of 0.209 and a relative viability (LU99A; first compound 0.01581 µM) of 0.199. It also gave a relative viability (LU99A; first compound 0.05 µM) of 0.217, a relative viability (LU99A; first compound 0.1581 µM) of 0.167 and a relative viability (LU99A; first compound 0.5 µM) of 0.201. It also gave a relative viability (H3255; first compound 0.005 µM) of 0.98, a relative viability (H3255; first compound 0.01581 µM) of 0.763 and a relative viability (H3255; first compound 0.05 µM) of 0.69. For the same compound, the relative viability (H3255; first compound 0.1581 µM) was 0.662, the relative viability (H3255; first compound 0.5 µM) was 0.554 and the relative viability (SW 900; first compound 0.005 µM) was 0.16. It also gave a relative viability (SW 900; first compound 0.01581 µM) of 0.184, a relative viability (SW 900; first compound 0.05 µM) of 0.186 and a relative viability (SW 900; first compound 0.1581 µM) of 0.142. For the same compound, the relative viability (SW 900; first compound 0.5 µM) was 0.137, the relative viability (NCI-H1563; first compound 0.005 µM) was 0.628 and the relative viability (NCI-H1563; first compound 0.01581 µM) was 0.506. It also gave a relative viability (NCI-H1563; first compound 0.05 µM) of 0.432, a relative viability (NCI-H1563; first compound 0.1581 µM) of 0.407 and a relative viability (NCI-H1563; first compound 0.5 µM) of 0.455. It also gave a relative viability (PC-14; first compound 0.005 µM) of 0.172, a relative viability (PC-14; first compound 0.01581 µM) of 0.133 and a relative viability (PC-14; first compound 0.05 µM) of 0.131. The relative viability (PC-14; first compound 0.1581 µM) was 0.131, the relative viability (PC-14; first compound 0.5 µM) was 0.0979 and the relative viability (NCI-H1650; first compound 0.005 µM) was 0.208. The relative viability (NCI-H1650; first compound 0.01581 µM) was 0.181, the relative viability (NCI-H1650; first compound 0.05 µM) was 0.254 and the relative viability (NCI-H1650; first compound 0.1581 µM) was 0.218. The relative viability (NCI-H1650; first compound 0.5 µM) was 0.209, the relative viability (NCI-H727; first compound 0.005 µM) was 0.22 and the relative viability (NCI-H727; first compound 0.01581 µM) was 0.527. The relative viability (NCI-H727; first compound 0.05 µM) was 0.475, the relative viability (NCI-H727; first compound 0.1581 µM) was 0.341 and the relative viability (NCI-H727; first compound 0.5 µM) was 0.309. It also gave a relative viability (NCI-H2347; first compound 0.005 µM) of 0.284, a relative viability (NCI-H2347; first compound 0.01581 µM) of 0.402 and a relative viability (NCI-H2347; first compound 0.05 µM) of 0.39. It also gave a relative viability (NCI-H2347; first compound 0.1581 µM) of 0.255, a relative viability (NCI-H2347; first compound 0.5 µM) of 0.411 and a relative viability (A-427; first compound 0.005 µM) of 0.708. For the same compound, the relative viability (A-427; first compound 0.01581 µM) was 0.425, the relative viability (A-427; first compound 0.05 µM) was 0.238 and the relative viability (A-427; first compound 0.1581 µM) was 0.186. For the same compound, the relative viability (A-427; first compound 0.5 µM) was 0.161, the relative viability (201T; first compound 0.005 µM) was 1.09 and the relative viability (201T; first compound 0.01581 µM) was 1.12. For the same compound, the relative viability (201T; first compound 0.05 µM) was 1.14, the relative viability (201T; first compound 0.1581 µM) was 0.982 and the relative viability (201T; first compound 0.5 µM) was 0.974. It also gave a relative viability (NCI-H596; first compound 0.005 µM) of 0.933, a relative viability (NCI-H596; first compound 0.01581 µM) of 0.841 and a relative viability (NCI-H596; first compound 0.05 µM) of 0.685. It also gave a relative viability (NCI-H596; first compound 0.1581 µM) of 0.548, a relative viability (NCI-H596; first compound 0.5 µM) of 0.388 and a relative viability (HCC-44; first compound 0.005 µM) of 0.949. It also gave a relative viability (HCC-44; first compound 0.01581 µM) of 1.05, a relative viability (HCC-44; first compound 0.05 µM) of 0.403 and a relative viability (HCC-44; first compound 0.1581 µM) of 0.257. For the same compound, the relative viability (HCC-44; first compound 0.5 µM) was 0.185, the relative viability (NCI-H1793; first compound 0.005 µM) was 0.201 and the relative viability (NCI-H1793; first compound 0.01581 µM) was 0.186. The relative viability (NCI-H1793; first compound 0.05 µM) was 0.232, the relative viability (NCI-H1793; first compound 0.1581 µM) was 0.184 and the relative viability (NCI-H1793; first compound 0.5 µM) was 0.155. The relative viability (LCLC-97TM1; first compound 0.005 µM) was 0.742, the relative viability (LCLC-97TM1; first compound 0.01581 µM) was 0.69 and the relative viability (LCLC-97TM1; first compound 0.05 µM) was 0.709. For the same compound, the relative viability (LCLC-97TM1; first compound 0.1581 µM) was 0.318, the relative viability (LCLC-97TM1; first compound 0.5 µM) was 0.344 and the relative viability (NCI-H23; first compound 0.005 µM) was 0.179. For the same compound, the relative viability (NCI-H23; first compound 0.01581 µM) was 0.192, the relative viability (NCI-H23; first compound 0.05 µM) was 0.197 and the relative viability (NCI-H23; first compound 0.1581 µM) was 0.199. It also gave a relative viability (NCI-H23; first compound 0.5 µM) of 0.188, a relative viability (LK-2; first compound 0.005 µM) of 0.193 and a relative viability (LK-2; first compound 0.01581 µM) of 0.187. It also gave a relative viability (LK-2; first compound 0.05 µM) of 0.197, a relative viability (LK-2; first compound 0.1581 µM) of 0.155 and a relative viability (LK-2; first compound 0.5 µM) of 0.176. It also gave a relative viability (NCI-H460; first compound 0.005 µM) of 0.036, a relative viability (NCI-H460; first compound 0.01581 µM) of 0.0332 and a relative viability (NCI-H460; first compound 0.05 µM) of 0.0248. For the same compound, the relative viability (NCI-H460; first compound 0.1581 µM) was 0.0172 and the relative viability (NCI-H460; first compound 0.5 µM) was 0.0144.
